#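 48-hour exposure; five concentrations; linearly interpolated endpoints. Abbreviation: GI50, concentration required for 50% inhibition of growth. TGI: concentration producing complete growth inhibition.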
# Experiments:
# Assay in all cases: NCI-60 cell line screen, 48 h
# UO-31 renal = test system: UO-31 renal
# OVCAR-3 ovarian = test system: OVCAR-3 ovarian
# SK-OV-3 ovarian = test system: SK-OV-3 ovarian
# NCI/ADR-RES ovarian = test system: NCI/ADR-RES ovarian
# HCC-2998 colon = test system: HCC-2998 colon
# SK-MEL-5 melanoma = test system: SK-MEL-5 melanoma
# HOP-92 NSCLC = test system: HOP-92 NSCLC
# TK-10 renal = test system: TK-10 renal
# M14 melanoma = test system: M14 melanoma
# U251 CNS = test system: U251 CNS
# MOLT-4 leukemia = test system: MOLT-4 leukemia
# SNB-75 CNS = test system: SNB-75 CNS
# K-562 leukemia = test system: K-562 leukemia
# NCI-H23 lung = test system: NCI-H23 lung
# RPMI-8226 leukemia = test system: RPMI-8226 leukemia
# OVCAR-8 ovarian = test system: OVCAR-8 ovarian
# SNB-19 CNS = test system: SNB-19 CNS
# EKVX NSCLC = test system: EKVX NSCLC
# HS 578T breast = test system: HS 578T breast
# SF-268 CNS = test system: SF-268 CNS
# CAKI-1 renal = test system: CAKI-1 renal
# HCT-15 colon = test system: HCT-15 colon
# HT29 colon = test system: HT29 colon
# A549 NSCLC = test system: A549 NSCLC
# OVCAR-5 ovarian = test system: OVCAR-5 ovarian
# LOX IMVI melanoma = test system: LOX IMVI melanoma
# ACHN renal = test system: ACHN renal
# KM12 colon = test system: KM12 colon
# 786-0 renal = test system: 786-0 renal
# RXF 393 renal = test system: RXF 393 renal
# SF-539 CNS = test system: SF-539 CNS
# SK-MEL-28 melanoma = test system: SK-MEL-28 melanoma
# HL-60(TB) leukemia = test system: HL-60(TB) leukemia
# SR leukemia = test system: SR leukemia
# OVCAR-4 ovarian = test system: OVCAR-4 ovarian
# SW-620 colon = test system: SW-620 colon
# IGROV1 ovarian = test system: IGROV1 ovarian
# CCRF-CEM leukemia = test system: CCRF-CEM leukemia
# BT-549 breast = test system: BT-549 breast
# NCI-H460 lung = test system: NCI-H460 lung
# MCF7 breast = test system: MCF7 breast
# SN12C renal = test system: SN12C renal
# A498 renal = test system: A498 renal
# COLO 205 colon = test system: COLO 205 colon
# MDA-MB-231 breast = test system: MDA-MB-231 breast
# UACC-62 melanoma = test system: UACC-62 melanoma
# SK-MEL-2 melanoma = test system: SK-MEL-2 melanoma
# HOP-62 NSCLC = test system: HOP-62 NSCLC
# NCI-H226 lung = test system: NCI-H226 lung
# MALME-3M melanoma = test system: MALME-3M melanoma
# SF-295 CNS = test system: SF-295 CNS
# PC-3 prostate = test system: PC-3 prostate
# HCT-116 colon = test system: HCT-116 colon
# MDA-MB-435 = test system: MDA-MB-435
# UACC-257 melanoma = test system: UACC-257 melanoma
compound,measurement,setting,value
COc1cc(/C=C2\CCc3ccccc3C2=O)ccc1O,TGI,UO-31 renal,27.4 µM
same,TGI,OVCAR-3 ovarian,36.1 µM
same,TGI,SK-OV-3 ovarian,91.5 µM
same,TGI,NCI/ADR-RES ovarian,78.8 µM
same,TGI,HCC-2998 colon,33.7 µM
same,TGI,SK-MEL-5 melanoma,35.3 µM
same,TGI,HOP-92 NSCLC,45.2 µM
same,TGI,TK-10 renal,37.8 µM
same,TGI,M14 melanoma,33.5 µM
same,TGI,U251 CNS,31.7 µM
same,TGI,MOLT-4 leukemia,69.1 µM
same,TGI,SNB-75 CNS,79.1 µM
same,TGI,K-562 leukemia,79.7 µM
same,TGI,NCI-H23 lung,52.3 µM
same,TGI,RPMI-8226 leukemia,50.2 µM
same,TGI,OVCAR-8 ovarian,37.1 µM
same,TGI,SNB-19 CNS,30.2 µM
same,TGI,EKVX NSCLC,59 µM
same,TGI,HS 578T breast,> 100 µM
same,TGI,SF-268 CNS,74.1 µM
same,TGI,CAKI-1 renal,> 100 µM
same,TGI,HCT-15 colon,75.7 µM
same,TGI,HT29 colon,32.7 µM
same,TGI,A549 NSCLC,53.2 µM
same,TGI,OVCAR-5 ovarian,27.2 µM
same,TGI,LOX IMVI melanoma,32.8 µM
same,TGI,ACHN renal,58.1 µM
same,TGI,KM12 colon,30.8 µM
same,TGI,786-0 renal,27.3 µM
same,TGI,RXF 393 renal,25 µM
same,TGI,SF-539 CNS,30.4 µM
same,TGI,SK-MEL-28 melanoma,38.8 µM
same,TGI,HL-60(TB) leukemia,30.1 µM
same,TGI,SR leukemia,48 µM
same,TGI,OVCAR-4 ovarian,44.8 µM
same,TGI,SW-620 colon,33.9 µM
same,TGI,IGROV1 ovarian,> 100 µM
same,TGI,CCRF-CEM leukemia,> 100 µM
same,TGI,BT-549 breast,37.7 µM
same,TGI,NCI-H460 lung,34.4 µM
same,TGI,MCF7 breast,23.2 µM
same,TGI,SN12C renal,49.7 µM
N#Cc1cc2c(N)ncnc2nc1N1CCCC1,GI50,UO-31 renal,45.7 µg/mL
same,GI50,SK-OV-3 ovarian,54.4 µg/mL
same,GI50,HOP-92 NSCLC,57.2 µg/mL
same,GI50,M14 melanoma,48.4 µg/mL
same,GI50,MOLT-4 leukemia,85.2 µg/mL
same,GI50,A498 renal,36.9 µg/mL
same,GI50,SR leukemia,66.4 µg/mL
same,GI50,BT-549 breast,49.3 µg/mL
same,GI50,COLO 205 colon,83.6 µg/mL
c1ccc(CSCCNCCN(CCNCCSCc2ccccc2)CCNCCSCc2ccccc2)cc1,GI50,UO-31 renal,1.78 µM
same,TGI,UO-31 renal,3.23 µM
same,GI50,OVCAR-3 ovarian,4.23 µM
same,TGI,OVCAR-3 ovarian,18.3 µM
same,GI50,SK-OV-3 ovarian,1.94 µM
same,TGI,SK-OV-3 ovarian,3.43 µM
same,GI50,SK-MEL-5 melanoma,1.72 µM
same,TGI,SK-MEL-5 melanoma,3.12 µM
same,GI50,TK-10 renal,1.59 µM
same,TGI,TK-10 renal,2.94 µM
same,GI50,M14 melanoma,1.31 µM
same,TGI,M14 melanoma,2.65 µM
same,GI50,U251 CNS,1.52 µM
same,TGI,U251 CNS,2.85 µM
same,GI50,MDA-MB-231 breast,1.56 µM
same,TGI,MDA-MB-231 breast,2.94 µM
same,GI50,UACC-62 melanoma,1.77 µM
same,TGI,UACC-62 melanoma,3.16 µM
same,GI50,SK-MEL-2 melanoma,1.6 µM
same,TGI,SK-MEL-2 melanoma,3.11 µM
same,GI50,HOP-62 NSCLC,1.49 µM
same,TGI,HOP-62 NSCLC,2.83 µM
same,GI50,RPMI-8226 leukemia,0.337 µM
same,TGI,RPMI-8226 leukemia,1.03 µM
same,GI50,OVCAR-8 ovarian,1.57 µM
same,TGI,OVCAR-8 ovarian,3.02 µM
same,GI50,NCI-H226 lung,1.78 µM
same,TGI,NCI-H226 lung,3.28 µM
same,GI50,SF-268 CNS,1.53 µM
same,TGI,SF-268 CNS,2.96 µM
same,GI50,CAKI-1 renal,3.35 µM
same,TGI,CAKI-1 renal,14.3 µM
same,GI50,MALME-3M melanoma,1.84 µM
same,TGI,MALME-3M melanoma,3.41 µM
same,GI50,SF-295 CNS,4.17 µM
same,TGI,SF-295 CNS,20.5 µM
same,GI50,OVCAR-5 ovarian,1.76 µM
same,TGI,OVCAR-5 ovarian,3.19 µM
same,GI50,PC-3 prostate,1.66 µM
same,TGI,PC-3 prostate,3.21 µM
same,GI50,HCT-116 colon,0.183 µM
same,TGI,HCT-116 colon,0.34 µM
same,GI50,KM12 colon,1.1 µM
same,TGI,KM12 colon,2.41 µM
same,GI50,786-0 renal,1.53 µM
same,TGI,786-0 renal,2.94 µM
same,GI50,SF-539 CNS,2.14 µM
same,TGI,SF-539 CNS,3.58 µM
same,GI50,MDA-MB-435,5.37 µM
same,TGI,MDA-MB-435,18.9 µM
same,GI50,SW-620 colon,1.78 µM
same,TGI,SW-620 colon,3.21 µM
same,GI50,CCRF-CEM leukemia,1.54 µM
same,TGI,CCRF-CEM leukemia,3.06 µM
same,GI50,UACC-257 melanoma,1.77 µM
same,TGI,UACC-257 melanoma,3.31 µM
same,GI50,BT-549 breast,1.8 µM
same,TGI,BT-549 breast,3.22 µM
same,GI50,NCI-H460 lung,1.37 µM
same,TGI,NCI-H460 lung,2.71 µM
same,GI50,MCF7 breast,0.363 µM
same,TGI,MCF7 breast,0.803 µM
same,GI50,SN12C renal,1.44 µM
same,TGI,SN12C renal,2.77 µM
